Test results published in patent US5985856A, “Water soluble prodrugs of secondary and tertiary amine containing drugs and methods of making thereof” (University of Kansas, priority 1998, dated 1999).
≈ marks a conversion by molar mass, not a printed value. Where two headings read alike, the source gives them in different places.

How the values were obtained:
[1] = in vivo; conditions: dog, iv
Description: (§1) Cinnarizine for i.v. injection was prepared in a 10 mM phosphate buffer solution at pH 4.5 at a concentration of 12.5 mg/10 ml (3.39 mM) along with 37.5 mM sulfobutylether 4 beta-cyclodextrin as a solubilizing excipient. The cyclodextrin solution (10 ml) was prepared first and the pH adjusted to 3.5 with HCl. The cinnarizine was then added and the solution was sonicated for three hours and subsequently stirred overnight. The pH was then adjusted to 4.5 with NaOH along with the addition of 29 mg of NaCl to adjust for isotonicity. The solution was then passed through a 0.22 μM nylon-membrane filter just prior to administration. The prodrug injection was prepared by dissolving 16.97 mg or cinnarizine prodrug in 10 ml of 0.9% NaCl sterile solution (3.39 mM) for injection. The solution was passed through a 0.22 μM nylon-membrane filter just prior to injection.
(§2) The evaluation of the cinnarizine plasma concentration versus time was conducted with a male beagle dog weighing 11.1 kg. The dog received the cinnarizine injection followed by a two-week washout period then received the prodrug injection in an equal molar quantity. Samples were taken from the dog prior to dosing (10 ml blank plasma) and 2, 6, 10, 20, 40 min and 1, 2, 4, 6, 8, 24 hours post-dosing (3 ml each). Blood samples were drawn from either cephalic, saphenous, or jugular vein. The samples were centrifuged for 10 minutes and 1 ml of plasma was measured and frozen at -20° C. prior to sampling by HPLC. The dog received a regular diet between experiments and was fasted the day of the experiment.
(§3) Plasma concentrations of cinnarizine were determined by HPLC with fluorescence detection. To each one milliliter of plasma was added: 100 μL of acetonitrile-H2O (70:30, v/v), containing 40 μg meclizine (internal standard), and 100 μL of 0.5 M HCl. The plasma sample was then vortexed for 30 seconds. One ml of carbon tetrachloride was then combined with the sample for an additional one minute of vortexing. Samples were then centrifuged for ten minutes after which the carbon tetrachloride was removed and evaporated to dryness under a stream of dry nitrogen. The residue was then redissolved in 200 μL of acetonitrile-H2 O (70:30, v/v) prior to sampling by HPLC. The results were calculated from peak area ratios. A six-point standard curve was obtained using the above procedure with addition of cinnarizine concentrations in the range of 5.5 to 550 ng/ml of plasma. A three-point calibration was performed on the day of the study using high, medium and low cinnarizine concentrations. This calibration was used for the quantification of cinnarizine concentration in the samples.
(§4) The HPLC system consisted of a Shimadzu LC-6A pump (Kyoto, Japan), a Rheodyne 7125 injector (Cotati, Calif.), a Shimadzu RF-535 Fluorescence HPLC monitor (Kyoto, Japan), and a Shimadzu CR-601 integrator (Kyoto, Japan). The HPLC conditions were as follows: injection volume, 50 μL; flow rate, 1.5 ml/min; excitation at 260 nm and emission at 315 nm. The stationary phase was a C18 ODS Hypersil reverse phase column (15 cm×4.6 mm i.d., 5 μM). The mobile phase was a 7 to 3 ratio of aceronitrile to buffer, respectively. The buffer consisted of 25 mmole potassium dihydrogen phosphate (adjusted to pH 3.9 with phosphoric acid) and 10 mM tetrabutyl ammonium dihydrogen phosphate.
(§5) Pharmacokinetic analysis was performed on the semilogarithmic plot of cinnarizine plasma concentration versus time post dosing for both the cinnarizine and cinnarizine prodrug injections. […] The equation had the form: C=A1e^-A1t +A2e^-A2t +A3e^-A3t, where t is time. Plasma terminal half life (t1/2) is calculated from t1/2 =0.693/λ3.

[2] = Pharmacokinetic evaluation of cinnarizine plasma concentration after i.v. injection; conditions: male beagle dog
Description: as §1, §2, §3, §4, §5

[3] = physchem; type: physicochemical
Description: Loxamine succinate is obtained from Research Biochemicals Incorporated (Natick, Mass.). […] Each pH solution is a 0.05 M buffered solution with an ionic strength adjusted to μ=0.2 with NaCl. The pH values along with their buffer composition are listed: pH 3.24, HCl/CH3 COONa; pH 3.96 and 4.96, CH3 COOH/CH3 COONa; pH 5.82-7.94, NaH2 PO4 /Na2 HPO4; pH 8.95 and 9.98, H3 BO3 /NaOH. The volume of buffer used in the experiments varies; samples with pH equal to or below 4.96 utilize 2 ml of buffer whereas the higher pH samples has a volume of 5 ml. […] The vials are then capped, sonicated and vortexed prior to submersion in a constant temperature shaking water bath at 25° C. The samples are shaken at a rate of 100 shakes/min. for at least 24 hours. […] The filtrates/supernatants are then appropriately diluted for quantification by HPLC. […] A C-18 reversed phase column (150×4 mm, ODS Hypersil, 5 μm particle size) is used for the analysis. The HPLC assays are carried out using UV detection at 254 nm. The mobile phase consists of acetonitrile and 25 mM of aqueous potassium phosphate monobasic solution adjusted to pH 3.8 with phosphoric acid. 0.15% of triethylamine is contained in the aqueous buffer.

[4] = Preliminary visual solubility estimates of synthesized prodrugs; type: physicochemical; conditions: preliminary visual estimate, pH 7.4
Excerpt: The present prodrugs are designed to increase the aqueous solubility and safety of amine-containing drugs. Preliminary visual solubility estimates for each of the prodrugs are listed below in Table 2.

[5] = dog, in vivo
Description: as §1, §2, §3, §4, §5

[6] = physchem; type: physicochemical; conditions: for solubility: 24 h
Description: Each pH solution contains 0.05 M buffer with an ionic strength adjusted to μ=0.2 with NaCl. The pH 3 buffer composition is HCl/CH3 COONa; whereas, the pH 7.4 buffer composition is NaH2 PO4 /Na2 HPO4. The volume of buffer used in the experiments is 150 μl. To this is added excess of the loxapine prodrug in one ml glass screw top vials. The vials are then capped, sonicated and vortexed prior to submersion in a constant temperature shaking water bath at 25° C. The samples are shaken at a rate of 100 shakes/min. for at least 24 hours. The suspensions are then placed in a micro centrifuge to precipitate the excess drug. A volume of 50 μl of the supernatant is then appropriately diluted with water for quantification by reverse phase HPLC. […] A C-18 reversed phase column (150×4 mm, ODS Hypersil, 5 μm particle size) is used for the analysis. The HPLC assays are carried out using UV detection at 254 nm. The mobile phase consists of acetonitrile and 25 mM of aqueous potassium phosphate monobasic solution adjusted to pH 3.8 with phosphoric acid. 0.15% of triethylamine is contained in the aqueous buffer. The ratio of organic:aqueous is 32:68. The retention time is 4.2 min. when the flow rate is adjusted to 1 ml/min.

[7] = pKa determination by 31P NMR method; conditions: 10% d2o in h2o
[8] = physchem; type: physicochemical; conditions: water
Description: A 0.01 M quinuclidine prodrug aqueous solution is titrated using a burette containing a 0.1 N sodium hydroxide volumetric standard solution obtained from Aldrich Chemical Company (Milwaukee, Wis.). […] This experiment is conducted at 25° C.
The first ionization constant, Ka1, is expected to be low and to be of little physiological importance; however, Ka2 is of much greater importance. With this in mind, the second ionization constant (Ka2) for the phosphate monoester promoiety of the quinuclidine was determined by two methods. These methods were potentiometric titration and ^31 P NMR. The potentiometric titration is by far the most traditional and accepted means for estimating pKa values; however, it has one main disadvantage. It requires significant quantities of, difficult to synthesize, prodrug. The quinuclidine prodrug is, by far, the simplest prodrug to synthesize and was chosen for the following experiments for that reason. For the potentiometric titration method, the volume of base added was plotted against the change in pH. This plot allows one to determine the volume of base required to reach the endpoint of the titration.

[9] = physchem; conditions: 10% d2o in h2o
[10] = 0.05 m hcl/ch3coona buffer, pH 3
[11] = 0.05 m nah2po4/na2hpo4 buffer, pH 7.4

Molecule `C(=C\c1ccccc1)/CN1CCN(C(c2ccccc2)c2ccccc2)CC1` [Cinnarizine] has a Vd [1] of 21.7 L/kg, a clearance [1] of 19.5 mL/min/kg and a half-life [1] of 12 h. The “observable signs of discomfort or toxicity after injection” value [2] was “no observable signs of discomfort or toxicity”.

In the case of `CN1CCN(C2=Nc3ccccc3Oc3ccc(Cl)cc32)CC1` [Loxapine free base, Loxapine], the solubility ([3]; 0.05 m buffer, aqueous buffer) is reported as 0.0126 mg/mL (≈ 0.0384 mM) and the solubility ([3]; hcl/ch3coona buffer, pH 3.24) is reported as 8.23 mg/mL (≈ 25.1 mM).

For `CCCCc1oc2ccccc2c1C(=O)c1cc(I)c(OCC[N+](CC)(CC)COP(=O)([O-])O)c(I)c1` [amiodarone prodrug], the solubility [4] was > 5 mg/mL.

In the case of `O=P([O-])(O)OC[N+]1(C/C=C/c2ccccc2)CCN(C(c2ccccc2)c2ccccc2)CC1` [cinnarizine prodrug], the solubility [4] is reported as > 5 mg/mL, the “conversion of prodrug to cinnarizine upon intravenous administration” value [5] is reported as “rapidly and quantitatively converted to cinnarizine” and the Cl ([5]; iv) is reported as 19.5 mL/min/kg. For the same molecule, the Vd ([5]; iv) was 21.2 L/kg, the “t1/2 (plasma terminal half life of cinnarizine)” value ([5]; iv) was 12.6 h and the “observable signs of discomfort or toxicity after injection” value [2] was “no observable signs of discomfort or toxicity”.

Work on `C[N+]1(COP(=O)([O-])O)CCN(C2=Nc3ccccc3Oc3ccc(Cl)cc32)CC1` [loxapine prodrug] yielded a solubility [6, 10] of 290.5 ± 2.9 mg/mL (≈ 664 mM), a solubility at 24 h [6, 10] of 290.5 ± 2.9 mg/mL (≈ 664 mM) and a solubility [6, 11] of 648.2 ± 0.6 mg/mL (≈ 1480 mM). For the same molecule, the solubility at 24 h [6, 11] was 648.2 ± 0.6 mg/mL (≈ 1480 mM), the “solubility limit relative to the concentration used in the parenteral formulation (50 mg/ml loxapine)” value ([6]; without cosolvents) was 9.7 times and the solubility [4] was > 600 mg/mL. The pKa [7] was 4.7.

Molecule `O=P([O-])(O)OC[N+]12CCC(CC1)CC2` [quinuclidine prodrug] has a pKa [8] of 5 and a pKa [9] of 4.9.
